Data on 1 molecule can be found in patent US7001736B1, “Pharmacogenetic methods for use in the treatment of nervous system diseases” (priority 1995, dated 2006).

Like-named read-outs stand apart in the source and are kept apart here.

In test [1] the test system is patients with AD. From the text: In this example we characterize patients with AD recruited for a large multi center study of tacrine and to investigate the impact of apoE allele load on short-term outcomes in placebo-treated patients, short-term Tacrine™ treatment effects, and long-term treatment outcome. The patients were classified by sex and dosage.
The 30-week study was randomized, double-blind, placebo-controlled, parallel-group clinical trial conducted at 33 centers in the USA (see Knapp, M. J. et al. JAMA 271: 985–991 (1995) for complete methodology). Patients randomized to tacrine treatment received an initial dose of 40 mg/day (10 mg QID) and were force-titrated at 6-week intervals in increments of 40 mg to maximum dose levels of 80, 120, and 160 mg/day for Groups II, III, and IV, respectively. Group I received placebo for the entire 30 weeks. The protocol was approved by Institutional Review Boards for each study center and followed guidelines of the Declaration of Helsinki and Good Clinical Practices.
Patients eligible for the 30-week study were men and women, at least 50 years of age, meeting National Institute of Neurological and Communicative Disorders and Stroke (NINCDS) criteria for a diagnosis of probable AD. […] Disease severity at the time of study entry was defined mild to moderate based on Mini-Mental State Examination. (MMSE) scores between 10 and 26 inclusive. Written informed consent was obtained from care givers and patients or their legal representatives. Medications with known central nervous system effects were prohibited during double-blind treatment. Once patients completed or terminated from the double-blind phase of the study there were no restrictions on concurrent medications. Patients who stopped tacrine treatment could take other investigational drugs.
The ADAS-Cog is an objective test that evaluates memory, language, and praxis and is a sensitive measure of patient performance (maximum severity score of […]). A decrease in score indicates improvement.
Four comparisons of tacrine 160 mg/day versus placebo were conducted: (1) without adjusting for ApoE4; (2) adjusting for the presence or absence of ApoE4; (3) for patients with Apo E4; and (4) without Apo E4. The estimated treatment differences, 95% confidence intervals for the treatment differences, and parametric p-values were computed from an analysis of variance (ANOVA) that included effects for randomized treatment group (placebo, 80 mg/day, 120 mg/day, and 160 mg/day) and study site. An analysis of covariance (ANCOVA) for ADAS-Cog also included baseline score a covariant. Least-square means were used to estimate the effect of the E4 allele on Week 30 efficacy scores.
The change in ADAS-Cog scores at Week 30 were estimated for: (1) placebo patients with an E4 allele, (2) placebo patients without an E4 allele, (3) Tacrine™ 160 mg/day patients with an E4 allele, and (4) Tacrine™ 160 mg/day patients without an E4 allele using ANCOVA that adjusted for site and baseline score. Similarly, Week 30 CIBIC and FCCA scores were estimated using ANOVA adjusted for study site effects.

Test [2] relates to AD patients. Particulars: maximum dose, 40 to 160 mg/d over 30 weeks.
Excerpt: The patients selection done on the basis of presence and absence of drug response to the treatment. The Alzheimer's Disease Assessment Scale (ADAS) used to monitor treatment effects. […] The ADAS-cog is an objective test that evaluates memory, attention, reasoning, orientation and praxis: a decrease score over time (or a positive difference) indicates improvement (Rosen W. G. et al, 1984, Am. J. Psychiatr., 141:1356 1364). The AD total includes the cognitive and non-cognitive portion of the ADAS.
Each bar represents an individual subjects. Positive delta values (difference in AD score at the end minus AD score prior to drug treatment) indicate improvement in cognitive performance (ADcog) and in global performances (ADAS-total). Negative values represent patients who deteriorated over time and drug treatment. All the subjects are AD subjects, all were treated with the same drug, at the same level, for the same duration.

Take `Nc1c2c(nc3ccccc13)CCCC2` [Tacrine, tacrine]: the response to tacrine result in test [1] (men having two E4 alleles) and in test [1] (women having two E4 alleles) was “do not respond” throughout. Moreover, the “% of subjects with an improvement of the ADAS-COG score by at least 5 points” value (“% of subjects” below) was 69% in test [1] (men, Tacrine high, E4/X); 29% in test [1] (men, Tacrine high, EX/X); 0% in test [1] (men, Tacrine low, E4/4); 14% in test [1] (men, Tacrine low, E4/X); 33% in test [1] (men, Tacrine low, EX/X); 0% in test [1] (men, Tacrine mid, E4/4). Besides, the “% of subjects” value in test [1] (men, Tacrine mid, E4/X) is 34%; in test [1] (men, Tacrine mid, EX/X) it was 0%; in test [1] (women, Tacrine high, E4/X) it was 20%; in test [1] (women, Tacrine high, EX/X) it was 43%; in test [1] (women, Tacrine low, E4/4), 0%; in test [1] (women, Tacrine low, E4/X) it was 20%. The “% of subjects” value in test [1] (women, Tacrine mid, E4/4) turned out to be 0%; in test [1] (women, Tacrine mid, E4/X), 24%; in test [1] (women, Tacrine mid, EX/X), 67%. In test [2] (apoE4 negative AD subjects), the “subjects showing improvement with tacrine administration (AD total)” value was “more than 85%”. In addition, in test [2] (apoE4 positive AD subjects), the “subjects worse following drug treatment (AD total)” value was determined as 60%.
